These compounds were tested on COLO320DM cells (assay: COLO320DM proliferation assay (CellTiter-Glo)). Conditions: absolute IC50, read-out: COLO320DM Proliferation Abs IC50.
Assay type: cell-based, human
Description: COLO320DM proliferation assay IC50: In some embodiments, inhibition of cell proliferation by provided technologies were assessed using cell lines related to or from certain conditions, disorders or diseases. In some embodiments, cell proliferation was assessed in COLO320DM cells. In some embodiments, assessment was performed using the following procedure: On Day 1, cultured COLO320DM cells in a T75 flask were trypsinized in 3 mL of 0.250% trypsin/EDTA for 5 min and quenched with 10 mL RPMI-1640+4% HI FBS assay media. The cells were spun down at 1200 rpm for 5 min, the cell pellet collected and re-suspended at 5000 cells/mL in assay media. Using a Combi liquid handler, cells were dispensed (50 uL, 250 cells/well) into three 384 well plates. Plates were incubated at 37° C., 5% CO2 for 18-22 h. On day 2, compounds were added. A liquid handling system was used to prepare the compound dilution and dispense compound into assay plates. The compounds were serially diluted 1/2 in 90% DMSO to create a 7 point dose curve. From compound plate, 100 nL of compound were dispensed directly into wells of the assay plates to create a dose curve starting at 20 uM and ending at 313 nM. Assay plates were incubated at 37° C., 5% CO2 for 96 h. On day 6, assay plates were removed from the incubator and allowed to sit at room temperature for 30 min. Using a liquid handler, 20 uL of CellTiter Glo reagent was added to each well. The assay plates were shaken for 2 min and allowed to sit on the bench for 10-15 minutes. The assay plates were read using the CellTiter Glo protocol on a GloMax microplate reader, and the data analyzed using GraphPad Prism. Activities of various agents, including various stapled peptides in Table E2, were confirmed.
In some embodiments, an assessment was performed as follows. On day 0, cells were seeded in cell culture media (RPMI1640, 4% FBS) in a 96-well plate at desired density, typically at 1000 cells/well. On day 1, 10 mM agent stock solution (in DMSO) was first serially diluted into DMSO at 1:2 ratio, followed by diluting with cell culture media at two times of the final concentrations. Finally, agent-containing media were introduced to cell culture wells already having the same volume of cell culture media. Cells were incubated with agents for desired days before lysed for CellTiter-Glo® Luminescent Cell Viability Assay according to the manufacture instruction (Promega, G7570). Luminescent signal was obtained from a microplate reader (GloMax, Promega). Cell viability data was expressed as % relative to DMSO control wells.
Proliferation Assay. In some embodiments, various proliferation assays are utilized to characterize or assess provided technologies. In some embodiments, on day 0, cells were seeded in cell culture media in a 96-well plate at desired density, typically at 1000 cells/well. On day 1, 10 mM compound stock solution was first serially diluted into DMSO, followed by diluting with cell culture media at two times of the final concentrations. Finally, compound-containing media were introduced to cell culture wells already having the same volume of cell culture media. Cells were incubated with compounds for desired days before lysed for CTG according to the manufacture instruction (G7570, Promega). Luminescent signal was obtained from a microplate reader (GloMax, Promega).
For `CC(=O)N1CCC[C@]12CC=CCCCC1(CCCC=CCCCOC(=O)N3CC[C@@]4(C3)NC(=O)[C@H](CSCc3cccc(c3)CSC[C@@H](C(=O)N[C@@H](C)C(N)=O)NC(=O)[C@H](Cc3csc5ccccc35)NC(=O)[C@H](Cc3ccccc3C(F)(F)F)NC4=O)NC(=O)[C@H](Cc3ccccc3)NC(=O)[C@H](C)NC(=O)C(C)(C)NC(=O)[C@H](Cc3cccc(C(=O)O)c3)NC(=O)[C@H](CC(=O)O)NC1=O)NC(=O)[C@H](CC(C)(C)C)NC(=O)[C@H](CC(=O)O)NC2=O` (stereo partly drawn) [I-375, Ac-PL3-Asp-Npg-B5-Asp-3COOHF-Aib-Ala-Phe-[mXyl]Cys-PyrS2-2F3MeF-BztA-Cys-Ala-NH2], the IC50 was ≤ 10 µM.

Same assay, conditions: read-out: COLO320DM Proliferation Abs IC50
For “Ac-PL3-Asp-Cha-B5-Asp-3COOHF-Ala-Ala-Phe-Lys*3-PyrS2-2ClF-BztA-GlnR*3-NH2 [I-1528]”, the IC50 was ≤ 10 µM.
For “Ac-PL3-Asp-Cha-B5-Asp-3COOHF-CyLeu-Ala-Phe-Lys*3-PyrS2-3Thi-34ClF-GlnR*3-NH2 [I-1047]”, the IC50 was ≤ 10 µM.
With “Ac-PL3-Asp-Chg-B5-Asp-3COOHF-Aib-Ala-Phe-Lys*3-PyrS2-2ClF-34ClF-GlnR*3-NH2 [I-1505]” the IC50 was ≤ 10 µM.
For “Ac-PL3-Asp-Chg-B5-Asp-3COOHF-Aib-Ala-Phe-Lys*3-PyrS2-2ClF-BztA-GlnR*3-NH2 [I-1530]”, the IC50 was ≤ 10 µM.
In the case of “Ac-PL3-Asp-Chg-B5-Asp-3COOHF-Aib-Ala-Phe-Lys*3-PyrS2-3Thi-34ClF-GlnR*3-NH2 [I-1037]”, the IC50 is reported as ≤ 10 µM.
In the case of “Ac-PL3-Asp-Chg-B5-Asp-3COOHF-Aib-Ala-Phe-Lys*3-PyrS2-Phe-34ClF-GlnR*3-NH2 [I-1048]”, the IC50 is reported as ≤ 10 µM.
For “Ac-PL3-Asp-Chg-B5-Asp-3COOHF-Ala-Ala-Phe-Lys*3-PyrS2-2ClF-34ClF-GlnR*3-NH2 [I-1506]”, the IC50 was ≤ 10 µM.
In the case of “Ac-PL3-Asp-Chg-B5-Asp-3COOHF-Ala-Ala-Phe-Lys*3-PyrS2-2ClF-BztA-GlnR*3-NH2 [I-1531]”, the IC50 is reported as ≤ 10 µM.
In the case of “Ac-PL3-Asp-Chg-B5-Asp-3COOHF-CyLeu-Ala-Phe-Lys*3-PyrS2-3Thi-34ClF-GlnR*3-NH2 [I-1044]”, the IC50 is reported as ≤ 10 µM.
With “Ac-PL3-Asp-Chg-B5-Asp-3COOHF-CyLeu-Ala-Phe-Lys*3-PyrS2-Phe-34ClF-GlnR*3-NH2 [I-1056]” the IC50 was ≤ 10 µM.
With “Ac-PL3-Asp-DipA-B5-Asn-3COOHF-nLeu-Ala-Phe-Lys*3-PyrS2-3Thi-34ClF-GlnR*3-NH2 [I-1638]” the IC50 was ≤ 10 µM.
In the case of “Ac-PL3-Asp-DipA-B5-Asp-3COOHF-Aib-Ala-Phe-Lys*3-PyrS2-3Thi-34ClF-GlnR*3-NH2 [I-1108]”, the IC50 is reported as ≤ 10 µM.
For “Ac-PL3-Asp-DipA-B5-Asp-3COOHF-Ala-Ala-Phe-Lys*3-PyrS2-3Thi-34ClF-GlnR*3-Ala-Ala-Ala-[mPEG8]-Lys [I-1705]”, the IC50 was ≤ 10 µM.
“Ac-PL3-Asp-DipA-B5-Asp-3COOHF-Ala-Ala-Phe-Lys*3-PyrS2-3Thi-34ClF-GlnR*3-Ala-Ala-Ala-[mPEG37]-Lys [I-1706]” was tested, and the IC50 was ≤ 10 µM.
“Ac-PL3-Asp-DipA-B5-Asp-3COOHF-Ala-Ala-Phe-Lys*3-PyrS2-3Thi-34ClF-GlnR*3-Ala-Ala-[Ac-PEG8]-Lys-NH2-NH2 [I-1788]” was tested, and the IC50 was ≤ 10 µM.
“Ac-PL3-Asp-DipA-B5-Asp-3COOHF-Ala-Ala-Phe-Lys*3-PyrS2-3Thi-34ClF-GlnR*3-Ala-Ala-[Ac-dPEG2]-Lys-NH2-NH2 [I-1787]” was tested, and the IC50 was ≤ 10 µM.
In the case of “Ac-PL3-Asp-DipA-B5-Asp-3COOHF-Ala-Ala-Phe-Lys*3-PyrS2-3Thi-34ClF-GlnR*3-Ala-Ala-[C18-PEG8]-Lys-NH2-NH2 [I-1792]”, the IC50 is reported as ≤ 10 µM.
For “Ac-PL3-Asp-DipA-B5-Asp-3COOHF-Ala-Ala-Phe-Lys*3-PyrS2-3Thi-34ClF-GlnR*3-Ala-Ala-[C18-dPEG2]-Lys-NH2-NH2 [I-1791]”, the IC50 was ≤ 10 µM.
In the case of “Ac-PL3-Asp-DipA-B5-Asp-3COOHF-Ala-Ala-Phe-Lys*3-PyrS2-3Thi-34ClF-GlnR*3-Ala-Ala-[Oct-PEG8]-Lys-NH2-NH2 [I-1790]”, the IC50 is reported as ≤ 10 µM.
For “Ac-PL3-Asp-DipA-B5-Asp-3COOHF-Ala-Ala-Phe-Lys*3-PyrS2-3Thi-34ClF-GlnR*3-Ala-Ala-[Oct-dPEG2]-Lys-NH2-NH2 [I-1789]”, the IC50 was ≤ 10 µM.
With “Ac-PL3-Asp-DipA-B5-Asp-3COOHF-Ala-Ala-Phe-Lys*3-PyrS2-3Thi-34ClF-GlnR*3-Ala-Ala-[mPEG8]-Lys-NH2 [I-1703]” the IC50 was ≤ 10 µM.
“Ac-PL3-Asp-DipA-B5-Asp-3COOHF-Ala-Ala-Phe-Lys*3-PyrS2-3Thi-34ClF-GlnR*3-Ala-Ala-[mPEG37]-Lys-NH2 [I-1704]” was tested, and the IC50 was ≤ 10 µM.
“Ac-PL3-Asp-DipA-B5-Asp-3COOHF-Ala-Ala-Phe-Lys*3-PyrS2-3Thi-34ClF-GlnR*3-NH2 [I-1111]” was tested, and the IC50 was ≤ 10 µM.
For “Ac-PL3-Asp-DipA-B5-Asp-3COOHF-Ala-Ala-Phe-Lys*3-PyrS2-3Thi-34ClF-GlnR*3-[mPEG8]-Lys-NH2 [I-1701]”, the IC50 was ≤ 10 µM.
In the case of “Ac-PL3-Asp-DipA-B5-Asp-3COOHF-Ala-Ala-Phe-Lys*3-PyrS2-3Thi-34ClF-GlnR*3-[mPEG37]-Lys-NH2 [I-1702]”, the IC50 is reported as ≤ 10 µM.
With “Ac-PL3-Asp-DipA-B5-Asp-3COOHF-Ala-Ala-Phe-Lys*3-PyrS2-3Thi-BztA-GlnR*3-Ala-NH2 [I-982]” the IC50 was ≤ 10 µM.
For “Ac-PL3-Asp-DipA-B5-Asp-3COOHF-CyLeu-Ala-Phe-Lys*3-PyrS2-2F3MeF-34ClF-GlnR*3-Leu-NH2 [I-1769]”, the IC50 was ≤ 10 µM.
With “Ac-PL3-Asp-DipA-B5-Asp-3COOHF-CyLeu-Ala-Phe-Lys*3-PyrS2-2F3MeF-34ClF-GlnR*3-Val-NH2 [I-1773]” the IC50 was ≤ 10 µM.
For “Ac-PL3-Asp-DipA-B5-Asp-3COOHF-CyLeu-Ala-Phe-Lys*3-PyrS2-2F3MeF-BztA-GlnR*3-Leu-NH2 [I-1770]”, the IC50 was ≤ 10 µM.
In the case of “Ac-PL3-Asp-DipA-B5-Asp-3COOHF-CyLeu-Ala-Phe-Lys*3-PyrS2-2F3MeF-BztA-GlnR*3-NH2 [I-1766]”, the IC50 is reported as > 20 µM.
“Ac-PL3-Asp-DipA-B5-Asp-3COOHF-CyLeu-Ala-Phe-Lys*3-PyrS2-2F3MeF-BztA-GlnR*3-Phe-NH2 [I-1777]” was tested, and the IC50 was ≤ 10 µM.
“Ac-PL3-Asp-DipA-B5-Asp-3COOHF-CyLeu-Ala-Phe-Lys*3-PyrS2-2F3MeF-BztA-GlnR*3-Ser-NH2 [I-1772]” was tested, and the IC50 was ≤ 10 µM.
With “Ac-PL3-Asp-DipA-B5-Asp-3COOHF-CyLeu-Ala-Phe-Lys*3-PyrS2-2F3MeF-BztA-GlnR*3-Val-NH2 [I-1774]” the IC50 was ≤ 10 µM.
With “Ac-PL3-Asp-DipA-B5-Asp-3COOHF-CyLeu-Ala-Phe-Lys*3-PyrS2-3Thi-34ClF-GlnR*3-Ala-NH2 [I-1118]” the IC50 was ≤ 10 µM.
“Ac-PL3-Asp-DipA-B5-Asp-3COOHF-CyLeu-Ala-Phe-Lys*3-PyrS2-3Thi-34ClF-GlnR*3-NH2 [I-1117]” was tested, and the IC50 was ≤ 10 µM.
“Ac-PL3-Asp-DipA-B5-Asp-3COOHF-Val-Ala-Phe-Lys*3-PyrS2-3Thi-BztA-GlnR*3-Ala-NH2 [I-984]” was tested, and the IC50 was ≤ 10 µM.
With “Ac-PL3-Asp-DipA-B5-Asp-3COOHF-Val-Ala-Phe-Lys*3-PyrS2-Phe-BztA-GlnR*3-dPro-NH2 [I-1855]” the IC50 was ≤ 10 µM.
With “Ac-PL3-Asp-DipA-B5-Asp-3COOHF-nLeu-Ala-Phe-Lys*3-PyrS2-3Thi-BztA-GlnR*3-Ala-NH2 [I-986]” the IC50 was ≤ 10 µM.
In the case of “Ac-PL3-Asp-DipA-B5-aThr-3COOHF-nLeu-Ala-Phe-Lys*3-PyrS2-3Thi-34ClF-GlnR*3-NH2 [I-1639]”, the IC50 is reported as ≤ 10 µM.
“Ac-PL3-Asp-Ile-B5-Asp-3COOHF-Aib-Ala-Phe-1MeK*3-PyrS2-Phe-34ClF-GlnR*3-NH2 [I-1369]” was tested, and the IC50 was ≤ 10 µM.
In the case of “Ac-PL3-Asp-Ile-B5-Asp-3COOHF-Aib-Ala-Phe-1MeK*3-PyrS2-Phe-34ClF-hGlnR*3-NH2 [I-1373]”, the IC50 is reported as > 20 µM.
For “Ac-PL3-Asp-Ile-B5-Asp-3COOHF-Aib-Ala-Phe-GlnR*3-PyrS2-Phe-34ClF-1MeK*3-NH2 [I-1370]”, the IC50 was ≤ 10 µM.
For “Ac-PL3-Asp-Ile-B5-Asp-3COOHF-Aib-Ala-Phe-GlnR*3-PyrS2-Phe-34ClF-AsnEDA*3-NH2 [I-1376]”, the IC50 was ≤ 10 µM.
In the case of “Ac-PL3-Asp-Ile-B5-Asp-3COOHF-Aib-Ala-Phe-GlnR*3-PyrS2-Phe-34ClF-Lys*3-NH2 [I-1367]”, the IC50 is reported as ≤ 10 µM.
With “Ac-PL3-Asp-Ile-B5-Asp-3COOHF-Aib-Ala-Phe-Lys*3-PyrS2-2FF-34ClF-GlnR*3-NH2 [I-1539]” the IC50 was ≤ 10 µM.
With “Ac-PL3-Asp-Ile-B5-Asp-3COOHF-Aib-Ala-Phe-Lys*3-PyrS2-2MeF-34ClF-GlnR*3-NH2 [I-1508]” the IC50 was ≤ 10 µM.

From patent US20240360179A1, “STAPLED PEPTIDES AND METHODS THEREOF” (FOG PHARMACEUTICALS, INC., priority 2021, published 2024)
